According to patent US10344025B2, “GLS1 inhibitors for treating disease” (Board of Regents, The University of Texas System, priority 2014, dated 2019):

Experiments:
[1] = target: purified recombinant human GAC (GLS1) (Homo sapiens (Human), UniProt O94925); test: GLS1 Enzymatic Activity Assay (dual-coupled enzymatic assay, resorufin/Amplex UltraRed readout); assay type: biochemical;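 also: glutamate from GAC coupled via glutamate oxidase and peroxidase to resorufin, read as fluorescence (ex 530, em 590 nm) kinetically or at 20 min, four-parameter logistic IC50 fit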
Sequence of purified recombinant human GAC (GLS1) (O94925 other isoform, or with tags, fused parts or gaps): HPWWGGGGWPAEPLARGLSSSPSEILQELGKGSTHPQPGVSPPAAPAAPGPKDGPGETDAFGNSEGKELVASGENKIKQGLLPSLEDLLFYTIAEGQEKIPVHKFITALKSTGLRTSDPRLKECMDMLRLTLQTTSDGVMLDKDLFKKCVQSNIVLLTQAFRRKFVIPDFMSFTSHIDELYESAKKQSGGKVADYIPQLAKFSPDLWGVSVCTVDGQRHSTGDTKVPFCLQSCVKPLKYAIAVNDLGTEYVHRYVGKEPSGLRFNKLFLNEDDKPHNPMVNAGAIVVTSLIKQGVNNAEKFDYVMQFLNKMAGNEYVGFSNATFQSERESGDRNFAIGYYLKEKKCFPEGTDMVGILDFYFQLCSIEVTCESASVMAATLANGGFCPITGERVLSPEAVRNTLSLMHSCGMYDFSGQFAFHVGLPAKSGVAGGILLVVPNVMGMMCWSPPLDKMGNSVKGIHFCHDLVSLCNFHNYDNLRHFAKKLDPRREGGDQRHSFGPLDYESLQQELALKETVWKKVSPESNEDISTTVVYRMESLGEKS

A549 cells = test: Proliferation Assay (A549 viability, Cell Titer Fluor, 72 hours); assay type: cell-based; conditions: Homo sapiens, A549, 72 h
Procedure, shortened: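 A549 cells seeded at 1000 cells/well, rested 24 h, then exposed to compound in 0.5% DMSO for 72 h at 37 °C. Viability read by Cell Titer Fluor fluorescence; IC50 from four-parameter logistic fit.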

Row | Compound | IC50 [1] [nM] | EC50 (A549 cells) [nM]
1 | O=C(Cc1cccc(OC(F)(F)F)c1)Nc1cn(CCC(F)Cn2cc(C(=O)NCc3cccc(OC(F)(F)F)c3)nn2)nn1 (stereo not shown) [Example 408, 1-[2-fluoro-4-(4-{2-[3-(trifluoromethoxy)phenyl]acetamido}-1H-1,2,3-triazol-1-yl)butyl]-N-{[3-(trifluoromethoxy)phenyl]methyl}-1H-1,2,3-triazole-4-carboxamide] | < 100 | < 100
2 | CNC(=O)c1cn(CCCCc2ccc(NC(=O)CN3CCN(c4cccc(OC(F)(F)F)c4)CC3)nn2)nn1 [Example 228, N-methyl-1-(4-(6-(2-(4-(3-(trifluoromethoxy)phenyl)piperazin-1-yl)acetamido)pyridazin-3-yl)butyl)-1H-1,2,3-triazole-4-carboxamide] | < 100 | < 100
3 | O=C(Cc1cccc(OC(F)(F)F)c1)Nc1ccc(CCCCn2cc(C(=O)NCC(CO)CO)nn2)nn1 [Example 552, N-[3-hydroxy-2-(hydroxymethyl)propyl]-1-[4-(6-{2-[3-(trifluoromethoxy)phenyl]acetamido}pyridazin-3-yl)butyl]-1H-1,2,3-triazole-4-carboxamide] | 500 to 5000 | > 5000
4 | O=C(NCc1cc(C(F)(F)F)ccn1)c1cn(CCCCn2cc(C(=O)NCC3COC3)nn2)nn1 [Example 87] | 500 to 5000 | > 5000
5 | O=C(Cc1cccc(OC(F)(F)F)c1)Nc1nnc(CCCCn2cc(C(=O)NCC3CCOC3)nn2)s1 (stereo not shown) [Example 12, N-(oxolan-3-ylmethyl)-1-[4-(5-{2-[3-(trifluoromethoxy)phenyl]acetamido}-1,3,4-thiadiazol-2-yl)butyl]-1H-1,2,3-triazole-4-carboxamide] | < 100 | < 100
6 | O=C(Cc1cc(OC(F)(F)F)ccc1F)Nc1cn(CCC(F)Cn2cc(C(=O)NCc3ccccn3)nn2)nn1 (stereo not shown) [Example 398, 1-[2-fluoro-4-(4-{2-[2-fluoro-5-(trifluoromethoxy)phenyl]acetamido}-1H-1,2,3-triazol-1-yl)butyl]-N-(pyridin-2-ylmethyl)-1H-1,2,3-triazole-4-carboxamide] | < 100 | < 100
7 | CNC(=O)c1cn(CCC(F)Cn2cc(C(=O)NCc3cccc(C#N)c3)nn2)nn1 (stereo not shown) [Example 182, 1-[4-(4-{[(3-cyanophenyl)methyl]carbamoyl}-1H-1,2,3-triazol-1-yl)-3-fluorobutyl]-N-methyl-1H-1,2,3-triazole-4-carboxamide] | 100 to 500 | > 5000
8 | Cc1ccc(CNC(=O)c2cn(CC(F)CCn3cc(NC(=O)Cc4cccc(OC(F)(F)F)c4)nn3)nn2)cn1 (stereo not shown) [Example 396, 1-[2-fluoro-4-(4-{2-[3-(trifluoromethoxy)phenyl]acetamido}-1H-1,2,3-triazol-1-yl)butyl]-N-[(6-methylpyridin-3-yl)methyl]-1H-1,2,3-triazole-4-carboxamide] | < 100 | < 100
9 | O=C(Cc1ccccn1)Nc1ccc(CCC(F)Cn2cc(C(=O)NCc3cc(C(F)(F)F)ccn3)nn2)nn1 (stereo not shown) [Example 211, 1-(2-fluoro-4-(6-(2-(pyridin-2-yl)acetamido)pyridazin-3-yl)butyl)-N-((4-(trifluoromethyl)pyridin-2-yl)methyl)-1H-1,2,3-triazole-4-carboxamide] | < 100 | < 100
10 | CNC(=O)c1cn(CCCCc2ccc(NC(=O)Cc3cc(OC(F)(F)F)ccc3F)nn2)nn1 [Example 160, 1-[4-(6-{2-[2-fluoro-5-(trifluoromethoxy)phenyl]acetamido}pyridazin-3-yl)butyl]-N-methyl-1H-1,2,3-triazole-4-carboxamide] | < 100 | < 100
11 | O=C(Cc1cccc(OC(F)(F)F)c1)Nc1cn(CC(F)CCn2cc(C(=O)NCc3ccc(C(F)(F)F)cn3)nn2)nn1 (stereo not shown) [Example 486, 1-[3-fluoro-4-(4-{2-[3-(trifluoromethoxy)phenyl]acetamido}-1H-1,2,3-triazol-1-yl)butyl]-N-{[5-(trifluoromethyl)pyridin-2-yl]methyl}-1H-1,2,3-triazole-4-carboxamide] | < 100 | < 100
12 | O=C(CN1CCC(F)(F)CC1)Nc1cn(CCCCn2cc(C(=O)NCc3cc(OC(F)(F)F)ccc3F)nn2)nn1 [Example 360, 1-(4-{4-[2-(4,4-difluoropiperidin-1-yl)acetamido]-1H-1,2,3-triazol-1-yl}butyl)-N-{[2-fluoro-5-(trifluoromethoxy)phenyl]methyl}-1H-1,2,3-triazole-4-carboxamide] | < 100 | < 100
13 | O=C(Cc1ccc(OC(F)(F)F)cc1F)Nc1cn(CCCCn2cc(C(=O)NCc3ccccn3)nn2)nn1 [Example 367, 1-[4-(4-{2-[2-fluoro-4-(trifluoromethoxy)phenyl]acetamido}-1H-1,2,3-triazol-1-yl)butyl]-N-(pyridin-2-ylmethyl)-1H-1,2,3-triazole-4-carboxamide] | < 100 | 100 to 500
14 | O=C(Cc1ccccc1)Nc1nnc(CCCCn2cc(C(=O)NCc3ccccc3)nn2)s1 [Example 15, N-benzyl-1-{4-[5-(2-phenylacetamido)-1,3,4-thiadiazol-2-yl]butyl}-1H-1,2,3-triazole-4-carboxamide] | < 100 | 100 to 500
15 | O=C(NCc1cc(C(F)(F)F)ccn1)c1cn(CCCCn2cc(C(=O)NCc3cc(F)ccc3Cl)nn2)nn1 [Example 107, 1-[4-(4-{[(2-chloro-5-fluorophenyl)methyl]carbamoyl}-1H-1,2,3-triazol-1-yl)butyl]-N-{[4-(trifluoromethyl)pyridin-2-yl]methyl}-1H-1,2,3-triazole-4-carboxamide] | < 100 | < 100
16 | O=C(NCc1cncc(C(F)(F)F)c1)c1cn(CCC(F)Cn2cc(C(=O)NCc3cc(C(F)(F)F)ccn3)nn2)nn1 (stereo not shown) [Example 476, 1-{2-fluoro-4-[4-({[5-(trifluoromethyl)pyridin-3-yl]methyl}carbamoyl)-1H-1,2,3-triazol-1-yl]butyl}-N-{[4-(trifluoromethyl)pyridin-2-yl]methyl}-1H-1,2,3-triazole-4-carboxamide] | < 100 | < 100
17 | O=C(NCc1cccc(OC(F)(F)F)c1)c1cn(CCCCn2cc(C(=O)NCC3CCCCO3)nn2)nn1 (stereo not shown) [Example 118, N-(oxan-2-ylmethyl)-1-{4-[4-({[3-(trifluoromethoxy)phenyl]methyl}carbamoyl)-1H-1,2,3-triazol-1-yl]butyl}-1H-1,2,3-triazole-4-carboxamide] | 100 to 500 | 100 to 500
18 | O=C(NCc1cc(C(F)(F)F)ccn1)c1cn(CCC(F)Cn2cc(C(=O)NCc3cc(C(F)(F)F)ccn3)nn2)nn1 (stereo not shown) [Example 470, 1-{2-fluoro-4-[4-({[4-(trifluoromethyl)pyridin-2-yl]methyl}carbamoyl)-1H-1,2,3-triazol-1-yl]butyl}-N-{[4-(trifluoromethyl)pyridin-2-yl]methyl}-1H-1,2,3-triazole-4-carboxamide] | < 100 | < 100
19 | O=C(Cc1ccccn1)Nc1cn(CCC(F)Cn2cc(C(=O)NCc3cc(OC(F)(F)F)ccc3F)nn2)nn1 (stereo not shown) [Example 419, 1-(2-fluoro-4-{4-[2-(pyridin-2-yl)acetamido]-1H-1,2,3-triazol-1-yl}butyl)-N-{[2-fluoro-5-(trifluoromethoxy)phenyl]methyl}-1H-1,2,3-triazole-4-carboxamide] | < 100 | < 100
20 | O=C(NCc1cccc(OC(F)(F)F)c1)c1cn(CCCCc2nnc(C(=O)NCCN3CCCC3)s2)nn1 [Example 49, N-[2-(pyrrolidin-1-yl)ethyl]-5-{4-[4-({[3-(trifluoromethoxy)phenyl]methyl}carbamoyl)-1H-1,2,3-triazol-1-yl]butyl}-1,3,4-thiadiazole-2-carboxamide] | 500 to 5000 | > 5000
21 | CNC(=O)c1cn(CCCCc2ccc(NC(=O)Cc3cccc(C4=CCN(C(=O)OC(C)(C)C)CC4)c3)nn2)nn1 [Example 212, tert-butyl 4-(3-(2-((6-(4-(4-(methylcarbamoyl)-1H-1,2,3-triazol-1-yl)butyl)pyridazin-3-yl)amino)-2-oxoethyl)phenyl)-3,6-dihydropyridine-1(2H)-carboxylate] | < 100 | < 100
22 | Cc1ccc(CNC(=O)c2cn(CC(F)CCc3nnc(NC(=O)Cc4cccc(OC(F)(F)F)c4)s3)nn2)cn1 (stereo not shown) [Example 559, 1-[2-fluoro-4-(5-{2-[3-(trifluoromethoxy)phenyl]acetamido}-1,3,4-thiadiazol-2-yl)butyl]-N-[(6-methylpyridin-3-yl)methyl]-1H-1,2,3-triazole-4-carboxamide] | < 100 | 100 to 500
23 | O=C(NCc1cc(OC(F)(F)F)ccc1F)c1cn(CC(F)CCc2nnc(NC(=O)c3ccccn3)s2)nn1 (stereo not shown) [Example 595, N-(5-(3-fluoro-4-(4-((2-fluoro-5-(trifluoromethoxy)benzyl)carbamoyl)-1H-1,2,3-triazol-1-yl)butyl)-1,3,4-thiadiazol-2-yl)picolinamide] | < 100 | < 100
24 | Cc1ccc(CC(=O)Nc2cn(CC(F)CCn3cc(C(=O)NCc4cc(C(F)(F)F)ccn4)nn3)nn2)cn1 (stereo not shown) [Example 400, 1-(3-fluoro-4-{4-[2-(6-methylpyridin-3-yl)acetamido]-1H-1,2,3-triazol-1-yl}butyl)-N-{[4-(trifluoromethyl)pyridin-2-yl]methyl}-1H-1,2,3-triazole-4-carboxamide] | < 100 | 100 to 500
25 | CNC(=O)c1cn(CC(F)CCc2nnc(NC(=O)Cc3cc(-c4cccc(OC(F)(F)F)c4)ccn3)s2)nn1 (stereo not shown) [Example 397, 1-(2-fluoro-4-(5-(2-(4-(3-(trifluoromethoxy)phenyl)pyridin-2-yl)acetamido)-1,3,4-thiadiazol-2-yl)butyl)-N-methyl-1H-1,2,3-triazole-4-carboxamide 2,2,2-trifluoroacetate] | < 100 | < 100
26 | CC(=O)Nc1ccc(CCCCn2cc(C(=O)NCc3cccc(OC(F)(F)F)c3)nn2)nn1 [Example 174, 1-[4-(6-acetamidopyridazin-3-yl)butyl]-N-{[3-(trifluoromethoxy)phenyl]methyl}-1H-1,2,3-triazole-4-carboxamide] | < 100 | 100 to 500
